Measurements: US8846687B2, “Pyrazine compounds as PI3 kinase inhibitors” (Novartis AG, priority 2008, dated 2014)

target: recombinant GST-p110γ (human PI 3-Kγ) (Homo sapiens, UniProt P48736); experiment: PI 3-kinase gamma in vitro kinase assay (Scintillation Proximity Assay)
Sequence (P48736 38-1102): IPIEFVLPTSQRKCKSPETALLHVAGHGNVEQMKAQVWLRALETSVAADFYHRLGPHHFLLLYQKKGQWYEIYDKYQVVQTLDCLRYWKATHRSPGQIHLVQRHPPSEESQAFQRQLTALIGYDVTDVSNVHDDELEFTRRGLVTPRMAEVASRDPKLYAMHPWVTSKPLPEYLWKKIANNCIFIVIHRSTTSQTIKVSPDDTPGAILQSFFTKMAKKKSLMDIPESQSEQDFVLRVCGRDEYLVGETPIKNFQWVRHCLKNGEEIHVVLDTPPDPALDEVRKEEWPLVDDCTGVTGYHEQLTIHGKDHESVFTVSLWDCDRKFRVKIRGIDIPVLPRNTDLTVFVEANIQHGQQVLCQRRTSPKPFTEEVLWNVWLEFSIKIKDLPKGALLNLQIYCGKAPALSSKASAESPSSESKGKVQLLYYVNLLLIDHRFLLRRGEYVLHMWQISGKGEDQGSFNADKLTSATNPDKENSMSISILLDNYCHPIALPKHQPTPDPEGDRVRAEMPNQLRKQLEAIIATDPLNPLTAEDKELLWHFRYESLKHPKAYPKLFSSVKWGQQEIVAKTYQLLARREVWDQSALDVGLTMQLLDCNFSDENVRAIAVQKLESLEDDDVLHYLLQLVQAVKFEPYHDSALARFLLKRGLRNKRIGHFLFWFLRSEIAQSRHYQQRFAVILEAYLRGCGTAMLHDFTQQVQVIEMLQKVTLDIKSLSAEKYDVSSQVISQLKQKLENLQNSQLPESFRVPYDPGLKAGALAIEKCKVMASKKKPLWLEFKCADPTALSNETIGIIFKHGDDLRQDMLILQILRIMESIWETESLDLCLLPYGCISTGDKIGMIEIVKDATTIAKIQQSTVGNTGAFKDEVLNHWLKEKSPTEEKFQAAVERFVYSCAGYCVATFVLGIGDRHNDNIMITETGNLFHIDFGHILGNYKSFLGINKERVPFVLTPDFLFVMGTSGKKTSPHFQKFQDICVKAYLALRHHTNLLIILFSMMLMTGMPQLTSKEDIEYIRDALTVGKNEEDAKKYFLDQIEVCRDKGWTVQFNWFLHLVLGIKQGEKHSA
Method: To express the recombinant protein, Sf9 (Spodoptera frugiperda 9) insect cells are routinely maintained at densities between 3×10^5 and 3×10^6 cells/ml in serum containing TNMFH medium (Sigma). Sf9 cells, at a density of 2×10^6 are infected with human GST-PI 3-KγΔ34 baculovirus at a multiplicity of infection (m.o.i.) of 1 for 72 hours. The infected cells are harvested by centrifugation at 1400 g for 4 minutes at 4° C. and the cell pellets are frozen at −80° C. […] Sf9 cells (1×10^9) are resuspended in 100 ml cold (4° C.) lysis buffer (50 mM Tris-HCl pH 7.5, 1% Triton X-100, 150 mM NaCl, 1 mM NaF, 2 mM DTT and protease inhibitors. Cells are incubated on ice for 30 minutes then centrifuged at 15000 g for 20 minutes at 4° C. Purification of the supernatant sample is carried out at 4° C. by affinity chromatography using SEPHAROSE™ agarose gel beads coupled to glutathione (from Amersham Pharmacia Biotech). A cell lysate/GST resin ratio of 50:1 is used. The GST resin is firstly pre-rinsed to remove ethanol preservative and then equilibrated with lysis buffer. Cell lysate (supernatant) is added (usually as 50 ml lysate to 1 ml GST resin in 50 ml tubes) and gently rotated on a mixer at 4° C. for 2-3 hours. The unbound flow through sample is collected by centrifugation at 1000 g for 5 minutes at 4° C. using a DENLEY™ centrifuge. The 1 ml GST resin containing bound material is transferred to a 15 ml FALCON™ centrifuge tube for subsequent washing and elution steps. Firstly a series of 3 cycles of washings (mixing by gentle inversion) is performed with 15 ml ice cold wash Buffer A (50 mM Tris-HCl pH 7.5, 1% Triton X-100, 2 mM DTT) interspersed with centrifugation at 1000 g for 5 minutes at 4° C. A final single wash step is performed with 15 ml ice cold wash Buffer B (50 mM Tris-HCl pH 7.5, 2 mM DTT) and then centrifuged at 1000 g for 5 minutes at 4° C. The washed GST resin is finally eluted with 4 cycles of 1 ml ice cold elution buffer (50 mM Tris-HCl pH 7.5, 10 mM reduced glutathione, 2 mM DTT, 150 mM NaCl, 1 mM NaF, 50% ethylene glycol and protease inhibitors) interspersed with centrifugation at 1000 g for 5 minutes at 4° C. Samples are aliquoted and stored at −20° C.
An in vitro kinase assay was established that measures the transfer of the terminal phosphate of adenosine triphosphate to phosphatidylinositol. The kinase reaction is performed in a white 96 well microtitre plate as a Scintillation Proximity Assay. Each well contains 10 μl test compound in 5% dimethylsulfoxide and 20 μl assay mix (40 mM Tris, 200 mM NaCl, 2 mM ethyleneglycol-aminoethyl-tetraacetic acid (EGTA), 15 μg/ml phosphatidylinositol, 12.5 μM adenosine triphosphate (ATP), 25 mM MgCl2, 0.1 μCi [^33P]ATP). The reaction is started by the addition of 20 μl of enzyme mix (40 mM Tris, 200 mM NaCl, 2 mM EGTA containing recombinant GST-p110γ).

Q: Which IC50 does the source give for Nc1ncc(-c2ccc(Cl)c(Cl)c2)nc1C(=O)c1ccc(CN2CCCCC2)cc1 [Example 86, [3-Amino-6-(3,4-dichloro-phenyl)-pyrazin-2-yl]-(4-piperidin-1-ylmethyl-phenyl)-methanone] here?
A: Its IC50 is 0.753 µM.

Q: For Nc1ncc(-c2cnc(N)c(C(=O)c3cccnc3)n2)cc1C(F)(F)F [Example 1, [3-Amino-6-(6-amino-5-trifluoromethyl-pyridin-3-yl)-pyrazin-2-yl]-pyridiny-3-yl-methanone], which IC50 is on record?
A: The IC50 was 0.033 µM.

Q: Which IC50 does the source give for Nc1ncc(-c2ccc3c(c2)OCO3)nc1C(=O)c1cccnc1 [Example 35, (3-Amino-6-benzo[1,3]dioxol-5-yl-pyrazin-2-yl)-pyridin-3-yl-methanone] here?
A: The IC50 was 0.587 µM.

Q: With Nc1ncc(-c2cncc(C(=O)N3CCOCC3)c2)nc1C(=O)c1cccnc1 [Example 28] as the compound, how does the IC50 read?
A: The IC50 was 0.373 µM.

Q: Which IC50 does the source give for Nc1ncc(-c2cc(S(=O)(=O)N3CCOCC3)c(F)cc2F)nc1C(=O)c1cccnc1 [Example 74, {3-Amino-6-[2,4-difluoro-5-(morpholine-4-sulfonyl)-phenyl]-pyrazin-2-yl}-pyridin-3-yl-methanone] here?
A: The IC50 was 0.125 µM.

Q: With Nc1cccc(-c2cnc(N)c(C(=O)c3cccnc3)n2)c1 [Example 51, [3-Amino-6-(3-amino-phenyl)-pyrazin-2-yl]-pyridin-3-yl-methanone] as the compound, how does the IC50 read?
A: Its IC50 is 0.393 µM.

Q: Nc1ncc(-c2ccc(Cl)c(S(=O)(=O)Nc3ccccc3)c2)nc1C(=O)c1cccnc1 [Example 13, 5-[5-Smino-6-(pyridine-3-carbonyl)-pyrazin-2-yl]-2-chloro-N-phenyl-benzenesulfonamide] was tested. Which IC50 did it give?
A: Its IC50 is 0.012 µM.

Q: Which IC50 does the source give for Nc1ncc(-c2cc(C(F)(F)F)cc(S(N)(=O)=O)c2)nc1C(=O)c1cccnc1 [Example 67, 3-[5-Amino-6-(pyridine-3-carbonyl)-pyrazin-2-yl]-5-trifluoromethyl-benzenesulfonamide] here?
A: The IC50 was 0.431 µM.

Q: Which IC50 does the source give for Nc1ncc(-c2cccc(C(=O)O)c2)nc1C(=O)c1cccnc1 [Example 49, 3-[5-Amino-6-(pyridine-3-carbonyl)-pyrazin-2-yl]-benzoic acid] here?
A: The IC50 was 0.362 µM.
